Where two headings read alike, the source gives them in different places.

For orientation: GI50 means the concentration that inhibits growth by half.

One test has as its system A431 cells (WT EGFR). Kind of test: Cell proliferation (CellTiter Glo, 72 hr) in A431 cells. It is filed as cell-based. As to conditions: Homo sapiens. The method, then:
(§1) A431 human epidermoid carcinoma, H1975 human NSCLC and HCC827 human NSCLC adenocarcinoma cells were obtained from the American Type Culture Center (Manassas, Va.). A431 cells were grown in DMEM (Invitrogen, Carlsbad, Calif.) supplemented with 10% FBS (HyClone, South Logan, Utah) and 1% Penicillin-Streptomycin (P/S, Lonza, Walkersville, Md.).
(§2) Cells were plated in Growth Media supplemented with 5% FBS and 1% P/S at a density of 3,000 cells per well in 96 well tissue culture plates (Corning). […] Growth inhibition (GI50) values were determined by Graph Pad Prism.

Test [1] deals with HCC827 cells (EGFR delE746-A750). Kind of test: Cell proliferation (CellTiter Glo, 72 hr) in HCC827 cells. The format is cell-based, human. Conditions: Homo sapiens, read-out: HCC827 GI50. Here is the method:
as §1, §2

Test [2] has as its system H1975 cells (EGFR L858R/T790M). Kind of test: Cell proliferation (CellTiter Glo, 72 hr) in H1975 cells. It is filed as cell-based, human. Conditions: Homo sapiens, read-out: H1975 GI50. The method, then: as §1, §2
In general terms: Cellular ATP, detected with luciferase, serves as a proxy for viable cell number.

Test [3] addresses EGFR double mutation L858R/T790M (H1975 cells) (Homo sapiens (Human), UniProt P00533, L858R/T790M). Kind of test: Phospho-EGFR signaling (immunoblotting, 1 hr) in H1975 cells. It is filed as cell-based. Conditions: signaling EC50 WT (A431) / H1975. The method, then: as §1
All primary antibodies were obtained from Cell Signaling (Danvers, Mass.) and used at 1:1000. Secondary antibodies were used at 1:10,000. Goat anti-mouse IgG IRDye 800CW antibody was obtained from LiCor Biosciences (Lincoln, Nebr.) and goat anti-rabbit IgG Alexa Fluor 680 was obtained from Invitrogen.
Cells were grown in 12-well plates (Corning, Coring, N.Y.) to 90% confluence and then incubated in low-serum (0.1% FBS) media for 16-18 hr. […] A431 cells were then stimulated with 50 ng/ml EGF (Peprotech, Rocky Hill, N.J.) for 15 min. After treatment, cell monolayers were washed with cold PBS (Invitrogen) and immediately lysed by scrapping into 60 uL cold Cell Extraction Buffer (Invitrogen) supplemented with Complete Protease inhibitors (Roche, Indianapolis, Ind.) and PhosphoSTOP (Roche) phosphatase inhibitors.
Phospho-protein signals were quantitated using Odyssey Infrared Imaging (Li-Cor Biosciences).
To assess phosphor-EGFR signaling, blots were probed with rabbit anti-Phospho-EGFR (Y1068) and mouse total anti-EGFR antibodies. Phospho-EGFR signal was normalized to total EGFR expression for each sample. […] Normalized data was fitted using a sigmoidal curve analysis program (Graph Pad Prism version 5) with variable Hill slope to determine the EC50 values.

The mark [4] stands for this setting: A-431, A431 cells, 72 hr, read-out: WT EGFR GI50.

As for `C=CC(=O)Nc1cccc(Nc2nc(Nc3ccc(N4CCCN(C(=O)C(F)(F)F)CC4)cc3OC)ncc2C(F)(F)F)c1` [Compound I-19, N-(3-(2-(2-methoxy-4-(4-(2,2,2-trifluoroacetyl)-1,4-diazepan-1-yl)phenylamino)-5-(trifluoromethyl)pyrimidin-4-ylamino)phenyl)acrylamide], the concentration for 50% growth inhibition (GI50) in the test with A431 cells (WT EGFR) (setting [4]) is > 1000 nM; in test [1] (HCC827 cells, 72 hr) it was 100 to 500 nM; in test [2] (NCI-H1975, H1975 cells, 72 hr), 100 to 500 nM.

As for `C=CC(=O)Nc1cccc(Nc2nc(Nc3ccc(N4CCN(C(C)=O)CC4)cc3OC(F)(F)F)ncc2C(F)(F)F)c1` [Compound I-33, N-(3-(2-(4-(4-acetylpiperazin-1-yl)-2-(trifluoromethoxy)phenylamino)-5-(trifluoromethyl)pyrimidin-4-ylamino)phenyl)acrylamide], the GI50 is > 1000 nM in the test on A431 cells (WT EGFR) (setting [4]); 100 to 500 nM in test [1] (HCC827 cells, 72 hr); 10 to 100 nM in test [2] (NCI-H1975, H1975 cells, 72 hr). Further, the “Ratio WT/mutant (H1975)” value in test [3] was >50.

For `C=CC(=O)Nc1cccc(Oc2nc(Nc3ccc(N4CCCN(C(=O)OC(C)(C)C)CC4)cc3OC)ncc2C(F)(F)F)c1` [Compound I-39, tert-butyl 4-(4-(4-(3-acrylamidophenoxy)-5-(trifluoromethyl)pyrimidin-2-ylamino)-3-methoxyphenyl)-1,4-diazepane-1-carboxylate], the GI50 is > 1000 nM in the test on A431 cells (WT EGFR) (setting [4]); > 1000 nM in test [1] (HCC827 cells, 72 hr); > 1000 nM in test [2] (NCI-H1975, H1975 cells, 72 hr).

On to `C=CC(=O)Nc1cccc(Nc2nc(Nc3ccc(N4CCN(C(=O)OC)CC4)cc3OC)ncc2C(F)(F)F)c1` [Compound I-29, methyl 4-(4-(4-(3-acrylamidophenylamino)-5-(trifluoromethyl)pyrimidin-2-ylamino)-3-methoxyphenyl)piperazine-1-carboxylate], for which the GI50 is > 1000 nM with A431 cells (WT EGFR) (setting [4]); 10 to 100 nM in test [1] (HCC827 cells, 72 hr); 10 to 100 nM in test [2] (NCI-H1975, H1975 cells, 72 hr).

As to `C=CC(=O)Nc1cccc(Nc2nc(Nc3ccc(N4CCN(C(=O)C(C)(C)C)CC4)cc3OC)ncc2C(F)(F)F)c1` [Compound I-34, N-(3-(2-(2-methoxy-4-(4-pivaloylpiperazin-1-yl)phenylamino)-5-(trifluoromethyl)pyrimidin-4-ylamino)phenyl)acrylamide], the GI50 in the test with A431 cells (WT EGFR) (setting [4]) is > 1000 nM; in test [1] (HCC827 cells, 72 hr), 10 to 100 nM; in test [2] (NCI-H1975, H1975 cells, 72 hr), 100 to 500 nM. The “Ratio WT/mutant (H1975)” value in test [3] is on record as >35.

On to `C=CC(=O)Nc1cccc(Nc2nc(Nc3ccc(N4CCS(=O)(=O)CC4)cc3OC)ncc2C(F)(F)F)c1` [Compound I-49, N-(3-(2-(2-methoxy-4,4-dioxo-4-thiomorpholinophenylamino)-5-(trifluoromethyl)pyrimidin-4-ylamino)phenyl)acrylamide], for which the concentration for 50% growth inhibition (GI50) with A431 cells (WT EGFR) (setting [4]) was > 1000 nM; in test [1] (HCC827 cells, 72 hr) it was 10 to 100 nM; in test [2] (NCI-H1975, H1975 cells, 72 hr), 100 to 500 nM. Further, the “Ratio WT/mutant (H1975)” value in test [3] is >20.

Take `C=CC(=O)Nc1cccc(Nc2nc(Nc3ccc(N4CCN(C(C)=O)CC4)cc3OC)ncc2Cl)c1` [Compound I-8, N-(3-(2-(4-(4-acetylpiperazin-1-yl)-2-methoxyphenylamino)-5-chloropyrimidin-4-ylamino)phenyl)acrylamide]: the 50% growth inhibitory concentration (GI50) was 500 to 1000 nM in the test on A431 cells (WT EGFR) (setting [4]); 10 to 100 nM in test [1] (HCC827 cells, 72 hr); 100 to 500 nM in test [2] (NCI-H1975, H1975 cells, 72 hr). In addition, the “Ratio WT/mutant (H1975)” value in test [3] is given as >1.

Turning to `C=CC(=O)Nc1cccc(Nc2nc(Nc3ccc(N4CCN(C(=O)OC(C)(C)C)[C@H](C(=O)OC)C4)cc3OC)ncc2C(F)(F)F)c1` [Compound I-50, (S)-1-tert-butyl 2-methyl 4-(4-(4-(3-acrylamidophenylamino)-5-(trifluoromethyl)pyrimidin-2-ylamino)-3-methoxyphenyl)piperazine-1,2-dicarboxylate], the GI50 with A431 cells (WT EGFR) (setting [4]) was > 1000 nM; in test [1] (HCC827 cells, 72 hr), 10 to 100 nM; in test [2] (NCI-H1975, H1975 cells, 72 hr), 100 to 500 nM.

With `C=CC(=O)Nc1cccc(Oc2nc(Nc3ccc(N4CCN(S(N)(=O)=O)CC4)cc3OC)ncc2C(F)(F)F)c1` [Compound I-27, N-(3-(2-(2-methoxy-4-(4-sulfamoylpiperazin-1-yl)phenylamino)-5-(trifluoromethyl)pyrimidin-4-yloxy)phenyl)acrylamide], the GI50 in the test with A431 cells (WT EGFR) (setting [4]) is > 1000 nM; in test [1] (HCC827 cells, 72 hr), 10 to 100 nM; in test [2] (NCI-H1975, H1975 cells, 72 hr) it was 100 to 500 nM.

For `C=CC(=O)Nc1cccc(Oc2nc(Nc3ccc(N4CCOCC4)cc3OC(F)F)ncc2C(F)(F)F)c1` [Compound I-13, N-(3-(2-(2-(difluoromethoxy)-4-morpholinophenylamino)-5-(trifluoromethyl)pyrimidin-4-yloxy)phenyl)acrylamide], the GI50 with A431 cells (WT EGFR) (setting [4]) was > 1000 nM; in test [1] (HCC827 cells, 72 hr), 10 to 100 nM; in test [2] (NCI-H1975, H1975 cells, 72 hr), 100 to 500 nM.

For `CCOc1cc2ncc(C#N)c(Nc3ccc(OCc4ccccn4)c(Cl)c3)c2cc1NC(=O)/C=C/CN(C)C` [HKI-272, reference compound], the GI50 in the test with A431 cells (WT EGFR) (A-431, read-out: Comparative GI50 Values, A431) is 4 nM.

`C=CC(=O)Nc1cccc(Nc2nc(Nc3ccc(N4CCCOCC4)cc3OC)ncc2C(F)(F)F)c1` [Compound I-38, N-(3-(2-(2-methoxy-4-(1,4-oxazepan-4-yl)phenylamino)-5-(trifluoromethyl)pyrimidin-4-ylamino)phenyl)acrylamide]: the GI50 with A431 cells (WT EGFR) (setting [4]) is > 1000 nM; in test [1] (HCC827 cells, 72 hr), 500 to 1000 nM; in test [2] (NCI-H1975, H1975 cells, 72 hr), > 1000 nM.

As to `C=CC(=O)Nc1cccc(Nc2nc(Nc3ccc(N4CCN(C(=O)NC)CC4)cc3OC)ncc2C(F)(F)F)c1` [Compound I-28, 4-(4-(4-(3-acrylamidophenylamino)-5-(trifluoromethyl)pyrimidin-2-ylamino)-3-methoxyphenyl)-N-methylpiperazine-1-carboxamide], the concentration for 50% growth inhibition (GI50) is > 1000 nM in the test on A431 cells (WT EGFR) (setting [4]); 10 to 100 nM in test [1] (HCC827 cells, 72 hr); 500 to 1000 nM in test [2] (NCI-H1975, H1975 cells, 72 hr).

For the molecule `C=CC(=O)Nc1cccc(Oc2nc(Nc3ccc(N4CCN(C(=O)CC(C)(C)C)CC4)cc3OC)ncc2Cl)c1` [Compound I-23, N-(3-(5-chloro-2-(4-(4-(3,3-dimethylbutanoyl)piperazin-1-yl)-2-methoxyphenylamino)pyrimidin-4-yloxy)phenyl)acrylamide], the GI50 was > 1000 nM with A431 cells (WT EGFR) (setting [4]); 100 to 500 nM in test [1] (HCC827 cells, 72 hr); 500 to 1000 nM in test [2] (NCI-H1975, H1975 cells, 72 hr).

As for `C=CC(=O)Nc1cccc(Oc2nc(Nc3ccc(N4CCN(C(C)=O)CC4)cc3OC)ncc2Cl)c1` [Compound I-9, N-(3-(2-(4-(4-acetylpiperazin-1-yl)-2-methoxyphenylamino)-5-chloropyrimidin-4-yloxy)phenyl)acrylamide], the GI50 with A431 cells (WT EGFR) (setting [4]) was > 1000 nM; in test [1] (HCC827 cells, 72 hr) it was 10 to 100 nM; in test [2] (NCI-H1975, H1975 cells, 72 hr), 100 to 500 nM.

Take `C=CC(=O)Nc1cccc(Nc2nc(Nc3ccc(N4CCN(C(=O)CC)CC4)cc3OC)ncc2C(F)(F)F)c1` [Compound I-35, N-(3-(2-(2-methoxy-4-(4-propionylpiperazin-1-yl)phenylamino)-5-(trifluoromethyl)pyrimidin-4-ylamino)phenyl)acrylamide]: the concentration for 50% growth inhibition (GI50) with A431 cells (WT EGFR) (setting [4]) is > 1000 nM; in test [1] (HCC827 cells, 72 hr) it was 10 to 100 nM; in test [2] (NCI-H1975, H1975 cells, 72 hr), 10 to 100 nM.

Regarding `C=CC(=O)Nc1cccc(Oc2nc(Nc3ccc(N4CCN(C(=O)OC(C)(C)C)CC4)cc3OCC)ncc2Cl)c1` [Compound I-18, tert-butyl 4-(4-(4-(3-acrylamidophenoxy)-5-chloropyrimidin-2-ylamino)-3-ethoxyphenyl)piperazine-1-carboxylate], the concentration for 50% growth inhibition (GI50) in the test on A431 cells (WT EGFR) (setting [4]) was > 1000 nM; in test [1] (HCC827 cells, 72 hr), 100 to 500 nM; in test [2] (NCI-H1975, H1975 cells, 72 hr), 500 to 1000 nM.

Regarding `C=CC(=O)Nc1cccc(Oc2nc(Nc3ccc(N4CCOCC4)cc3OC(F)F)ncc2Cl)c1` [Compound I-36, N-(3-(5-chloro-2-(2-(difluoromethoxy)-4-morpholinophenylamino)pyrimidin-4-yloxy)phenyl)acrylamide], the concentration for 50% growth inhibition (GI50) in the test with A431 cells (WT EGFR) (setting [4]) was > 1000 nM; in test [1] (HCC827 cells, 72 hr), 10 to 100 nM; in test [2] (NCI-H1975, H1975 cells, 72 hr) it was 100 to 500 nM.

In the case of `C=CC(=O)Nc1cccc(Oc2nc(Nc3ccc(N4CCN(C(=O)OC)CC4)cc3OC)ncc2C(F)(F)F)c1` [Compound I-20, methyl 4-(4-(4-(3-acrylamidophenoxy)-5-(trifluoromethyl)pyrimidin-2-ylamino)-3-methoxyphenyl)piperazine-1-carboxylate], the GI50 with A431 cells (WT EGFR) (A-431, 72 h, read-out: WT EGFR GI50) is > 1000 nM; in test [1] (HCC827, 72 h), 100 to 500 nM; in test [2] (NCI-H1975, 72 h), 100 to 500 nM.

`C=CC(=O)Nc1cccc(Oc2nc(Nc3ccc(N4CCCOCC4)cc3OC)ncc2Cl)c1` [Compound I-37, N-(3-(5-chloro-2-(2-methoxy-4-(1,4-oxazepan-4-yl)phenylamino)pyrimidin-4-yloxy)phenyl)acrylamide]: the concentration for 50% growth inhibition (GI50) in the test on A431 cells (WT EGFR) (setting [4]) is > 1000 nM; in test [1] (HCC827 cells, 72 hr) it was 100 to 500 nM; in test [2] (NCI-H1975, H1975 cells, 72 hr) it was 500 to 1000 nM.

The values above are taken from patent publication US10434101B2, “Heterocyclic compounds and uses thereof” (Celgene CAR LLC, priority 2010, dated 2019).
